Consider 2 compounds from US6867192B1, “Compounds useful in the treatment of inflammatory diseases” (priority 1998, dated 2005).

The subject of series [1] is ovalbumin sensitised guinea pigs. Briefly: Inhibition of eosinophil infiltration and hyper-reactivity in the guinea pig. It is filed as in vivo. Particulars: dose 200 μg/kg body weight i.t., positive control. How it is done:
(3) Inhibition of Eosinophil Infiltration and Hyper-Reactivity in the Guinea Pig
In a method based on that described by Danahay et al., 1997, ovalbumin sensitised guinea pigs were dosed with mepyramine (30 mg kg^−1 ip) to protect against anaphylactic bronchospasm. Test compounds, dissolved in 0.9% saline, were given by the inhaled route (30 minutes breathing of an aerosol of the compound) or the intra-tracheal route, 30 minutes before and 6 hours after ovalbumin challenge (10 minutes breathing of an aerosol generated from a 0.5% solution of ovalbumin). Hyper-reactivity of the airways to the thromboxane mimetic U46619, was measured 24 hours after ovalbumin challenge in un-restrained animals using a whole body plethysmograph (Buxco Ltd., USA). The guinea pigs were then sacrificed and the lungs lavaged. Total and differential leukocyte counts were then obtained for the bronchoalveolar lavage fluid and the percentage reduction in eosinophil accumulation determined (Sanjar et al., 1992). Dexamethasone (200 μg kg^−1 i.t) was used as a positive control. Data was presented as the inhibitory effect of the specified dose expressed as a percentage of the vehicle control response.

Series [2] is described as follows: Solubility in water. In kind it is physicochemical.

For orientation: inhibition in vivo means how much of the control response was suppressed. As usually defined, the solubility is the concentration that dissolves in the medium under given conditions.

On to `C[C@@H]1C[C@H]2[C@@H]3CCC4=CC(=O)C=C[C@]4(C)[C@@]3(F)[C@@H](O)C[C@]2(C)[C@@]1(O)C(=O)CO` [Dexamethasone, reference compound], for which the inhibition in vivo at 0.2 mg/kg in series [1] (Cavia porcellus, Eosinophil, inhaled or nasal, 24 h, airway hyper-reactivity to U46619) was 80%. Also, in series [1], the “% Inhibition Eosinophil Accumulation” value amounted to 55%.

In the case of `Cc1ccccc1OCC(=O)N[C@@H](CC(C)C)C(=O)N[C@@H](Cc1ccc(OC(=O)N2CCC(C(N)=O)CC2)cc1)C(=O)[O-].[K+]` [Example 27A, (2S)-3-[4-({[4-(Aminocarbonyl)-1-piperidinyl]carbonyl}oxy)phenyl]-2-[((2S)-4-methyl-2-{[2-(2-methylphenoxy)acetyl]amino}pentanoyl)amino]propanoic acid potassium salt], in series [2], the solubility is greater than 250 mg/mL.
